Data published in patent publication US20230234969A1, “N-LINKED MACROCYCLIC 7-(PYRAZOL-5-YL)-INDOLE DERIVATIVES AS INHIBIORS OF MCL-1” (Janssen Pharmaceutica NV, priority 2020, published 2023).
pKi: −log10 of the molar value.

Experiments:
[1] = molecular target: Myeloid Cell Leukemia 1 (Mcl-1) (Homo sapiens, UniProt Q07820); experiment: Terbium labeled Mcl-1 HTRF binding assay, displacement of Cy5-labeled BIM BH3 peptide; settings: 25 pM Tb-Mcl-1, 8 nM Cy5 Bim peptide, Ki=IC50/(1+[L]/Kd), [L]=8 nM, Kd=10 nM, 60 min room temperature, read-out: Tb-MCLl Ki
Sequence of Myeloid Cell Leukemia 1 (Mcl-1) (Q07820 whole entry): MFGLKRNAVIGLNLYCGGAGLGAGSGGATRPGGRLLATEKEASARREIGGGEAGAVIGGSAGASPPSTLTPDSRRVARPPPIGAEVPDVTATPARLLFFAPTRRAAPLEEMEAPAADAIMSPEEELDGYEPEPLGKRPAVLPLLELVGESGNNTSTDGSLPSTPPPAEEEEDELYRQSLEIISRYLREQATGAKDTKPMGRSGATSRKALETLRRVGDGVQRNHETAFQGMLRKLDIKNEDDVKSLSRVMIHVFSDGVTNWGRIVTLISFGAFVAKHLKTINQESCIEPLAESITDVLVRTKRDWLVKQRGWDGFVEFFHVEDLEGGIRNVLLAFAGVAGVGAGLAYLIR
Protocol: Terbium labeled Myeloid Cell Leukemia 1 (Mcl-1) homogeneous time-resolved fluorescence (HTRF) binding assay utilizing the BIM BH3 peptide (H2N-(C/Cy5Mal) WIAQELRRIGDEFN-OH) as the binding partner for Mcl-1.
This assay evaluated inhibition of the BH3 domain: Mcl-1 interaction by measuring the displacement of Cy5-labeled BIM BH3 peptide (H2N—(C/Cy5Mal) WIAQELRRIGDEFN-OH) in the HTRF assay format.
The following assay and stock buffers were prepared for use in the assay: (a) Stock buffer: 10 mM Tris-HCl, pH=7.5+150 mM NaCl, filtered, sterilized, and stored at 4° C.; and (b) 1×assay buffer, where the following ingredients were added fresh to stock buffer: 2 mM dithiothreitol (DTT), 0.0025% Tween-20, 0.1 mg/mL bovine serum albumin (BSA). The 1×Tb-Mcl-1+Cy5 Bim peptide solution was prepared by diluting the protein stock solution using the 1×assay buffer (b) to 25 pM Tb-Mcl-1 and 8 nM Cy5 Bim peptide.
Using the Acoustic ECHO, 100 nL of 100×test compound(s) were dispensed into individual wells of a white 384-well Perkin Elmer Proxiplate, for a final compound concentration of 1× and final DMSO concentration of 1%. Inhibitor control and neutral control (NC, 100 nL of 100% DMSO) were stamped into columns 23 and 24 of assay plate, respectively. Into each well of the plate was then dispensed 10 μL of the 1×Tb-Mcl-1+Cy5 Bim peptide solution. The plate was centrifuged with a cover plate at 1000 rpm for 1 minute, then incubated for 60 minutes at room temperature with plates covered. The TR-FRET signal was read on an BMG PHERAStar FSX MicroPlate Reader at room temperature using the HTRF optic module (HTRF: excitation: 337 nm, light source: laser, emission A: 665 nm, emission B: 620 nm, integration start: 60 μs, integration time: 400 μs).
The BMG PHERAStar FSX MicroPlate Reader was used to measure fluorescence intensity at two emission wavelengths—665 nm and 620 nm—and report relative fluorescence units (RFU) for both emissions, as well as a ratio of the emissions (665 nm/620 nm)*10,000. The RFU values were normalized to percent inhibition as follows:
% inhibition=(((NC−IC)−(compound−IC))/(NC−IC))*100
where IC (inhibitor control, low signal)=mean signal of 1×Tb-MCl-1+Cy5 Bim peptide+inhibitor control or 100% inhibition of Mcl-1; NC (neutral control, high signal)=mean signal 1×Tb-MCl-1+Cy5 Bim peptide with DMSO only or 0% inhibition
An 11-point dose response curve was generated to determine IC50 values (using GenData) based on the following equation:
Y=Bottom+(Top−Bottom)/(1+10^((log IC50−X)*HillSlope))
where Y=% inhibition in the presence of X inhibitor concentration; Top=100% inhibition derived from the IC (mean signal of Mcl-1+inhibitor control); Bottom=0% inhibition derived from the NC (mean signal of Mcl-1+DMSO); Hillslope=Hill coefficient; and IC50=concentration of compound with 50% inhibition in relation to top/neutral control (NC).
In this assay [L]=8 nM and Kd=10 nM
Representative compounds of the present invention were tested according to the procedure as described above, with results as listed in the Table below (n.d. means not determined).

[2] = system: MOLP-8 human multiple myeloma cell line; experiment: Caspase-Glo 3/7 assay in MOLP-8 cells (apoptosis induction); assay type: cell-based; settings: MOLP8 cells, 2 hours incubation at 37° C.; averaged values over all runs on all batches
From the text: MCL-1 is a regulator of apoptosis and is highly over-expressed in tumor cells that escape cell death. The assay evaluates the cellular potency of small-molecule compounds targeting regulators of the apoptosis pathway, primarily MCL-1, Bfl-1, Bcl-2, and other proteins of the Bcl-2 family. Protein-protein inhibitors disrupting the interaction of anti-apoptotic regulators with BH3-domain proteins initiate apoptosis.
The Caspase-Glo® 3/7 Assay is a luminescent assay that measures caspase-3 and -7 activities in purified enzyme preparations or cultures of adherent or suspension cells. The assay provides a proluminescent caspase-3/7 substrate, which contains the tetrapeptide sequence DEVD. This substrate is cleaved to release aminoluciferin, a substrate of luciferase used in the production of light. Addition of the single Caspase-Glo® 3/7 Reagent in an “add-mix-measure” format results in cell lysis, followed by caspase cleavage of the substrate and generation of a “glow-type” luminescent signal.
This assay uses the MOLP-8 human multiple myeloma cell line, which is sensitive to MCL-1 inhibition.
Cell cultures were maintained between 0.2 and 2.0×10^6 cells/mL. The cells were harvested by collection in 50 mL conical tubes. The cells were then pelleted at 500 g for 5 mins before removing supernatant and resuspension in fresh pre-warmed culture medium. The cells were counted and diluted as needed.
The assay reagent was prepared by transferring the buffer solution to the substrate vial and mixing. The solution may be stored for up to 1 week at 4° C. with negligible loss of signal.
Compounds were delivered in assay-ready plates (Proxiplate) and stored at −20° C. Assays always include 1 reference compound plate containing reference compounds. The plates were spotted with 40 nL of compounds (0.5% DMSO final in cells; serial dilution; 30 μM highest conc. 1/3 dilution, 10 doses, duplicates). The compounds were used at room temperature and 4 μL of pre-warmed media was added to all wells except column 2 and 23. The negative control was prepared by adding 1% DMSO in media. The positive control was prepared by adding the appropriate positive control compound in final concentration of 60 μM in media. The plate was prepared by adding 4 μL negative control to column 23, 4 μL positive control to column 2 and 4 μL cell suspension to all wells in the plate. The plate with cells was then incubated at 37° C. for 2 hours. The assay signal reagent is the Caspase-Glo solution described above, and 8 μL was added to all wells. The plates were then sealed and measured after 30 minutes.
The activity of a test compound was calculated as percent change in apoptosis induction as follows:
[formula] % Effect (AC50)=100−((sample−LC)/(HC−LC))*100
% Control=(sample/HC)*100
% Control min=(sample−LC)/(HC−LC)*100

| SMILES | pKi [1] | AC50 [2] [nM] |
| --- | --- | --- |
| Cc1nn2c(c1C)-c1c(Cl)ccc3c(c(C(=O)O)n(C)c13)CCCOc1cc(cc3ccccc13)SCc1cc(nn1C)CCC2 (single isomer, unassigned) [Compound 2] | 8.49 | 2710 |
| CCn1c(C(=O)O)c2c3ccc(Cl)c(c31)-c1c(C)c(C)nn1CCCc1cc(n(CCN(C)C)n1)CCc1cc(c3ccc(F)cc3c1)OCCC2 (single isomer, unassigned) [Compound 7] | 10.28 | 16 |
| CCn1c(C(=O)O)c2c3ccc(Cl)c(c31)-c1c(C)c(C)nn1CCCc1cc(n(CCOC)n1)CCc1cc(c3ccc(F)cc3c1)OCCC2 (single isomer, unassigned) [Compound 9] | 10.21 | 53 |
| COCCOCCn1c(C(=O)O)c2c3ccc(Cl)c(c31)-c1c(C)c(C)nn1CCCc1cc(n(C)n1)CCc1cc(c3ccc(F)cc3c1)OCCC2 (single isomer, unassigned) [Compound 6] | 8.71 | 1930 |
| CCn1c(C(=O)O)c2c3ccc(Cl)c(c31)-c1c(C)c(C)nn1CCCc1cc(n(C)n1)CCc1cc(c3ccc(F)cc3c1)OCCC2 (single isomer, unassigned) [Compound 4] | 7.47 | 13100 |
| CCn1c(C(=O)O)c2c3ccc(Cl)c(c31)-c1c(C)c(C)nn1CCCc1cc(n(C)n1)CCc1cc(c3ccc(F)cc3c1)OCCC2 (single isomer, unassigned) [Compound 3] | 10.37 | 36 |
| COCCOCCn1c(C(=O)O)c2c3ccc(Cl)c(c31)-c1c(C)c(C)nn1CCCc1cc(n(C)n1)CCc1cc(c3ccc(F)cc3c1)OCCC2 (single isomer, unassigned) [Compound 5] | 10.57 | 27 |
| CCn1c(C(=O)O)c2c3ccc(Cl)c(c31)-c1c(C)c(C)nn1CCCc1cc(n(CCOC)n1)CCc1cc(c3ccc(F)cc3c1)OCCC2 (single isomer, unassigned) [Compound 10] | 8.51 | 3060 |
| Cc1nn2c(c1C)-c1c(Cl)ccc3c(c(C(=O)O)n(C)c13)CCCOc1cc(cc3ccccc13)SCc1cc(nn1C)CCC2 (single isomer, unassigned) [Compound 1] | 10.05 | 67 |
| CCn1c(C(=O)O)c2c3ccc(Cl)c(c31)-c1c(C)c(C)nn1CCCc1cc(n(CCN(C)C)n1)CCc1cc(c3ccc(F)cc3c1)OCCC2 (single isomer, unassigned) [Compound 8] | 8.09 | 1560 |
